US20230159496A1, “COMPOUNDS AND METHODS FOR MODULATING SPLICING” (REMIX THERAPEUTICS INC., priority 2020, published 2023)
pIC50: −log10 of the molar value. Structures can show the parent of a compound that is named as a salt. Where two headings read alike, the source gives them in different places.

Tests used:
Assay type in all cases: cell-based
SMN2 CJ mRNA = assay: Gene panel canonical junction qPCR assay, SMN2; conditions: decrease in CJ mRNA levels, gene panel; read-out: SMN2 IC50
How it was run: (§1)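 A673 or K562 cells were treated for 24 h at 37 °C with an 11-point 3-fold dilution, top dose 10 uM, DMSO ≤0.25%. Canonical junction mRNA in lysates was quantified by one-step RT-qPCR and normalized to GAPDH, GUSB or PPIA.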

HTT CJ mRNA = assay: Gene panel canonical junction qPCR assay, HTT; conditions: decrease in CJ mRNA levels, gene panel; read-out: HTT IC50
How it was run: as §1

HTT mRNA = assay: Splicing assay (RT-qPCR) monitoring HTT canonical junction (CJ) and alternative junction (AJ) mRNA isoforms; conditions: A673 or K562 cells, 24 h treatment, top dose 10 uM
How it was run: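 A673 or K562 cells treated 24 h at 37 °C with an 11-point 3-fold dilution (top 10 uM final, DMSO ≤0.25%). Lysates assayed by one-step RT-qPCR for HTT CJ and AJ isoforms, normalized to GAPDH, GUSB (K562) or PPIA (A673).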

Target C CJ mRNA = assay: Gene panel canonical junction qPCR assay, Target C; conditions: decrease in CJ mRNA levels, gene panel; read-out: Target C IC50
How it was run: as §1

[1] = decrease in CJ mRNA (50% response), read-out: HTT CJ AC50
[2] = increase in AJ mRNA (50% response), read-out: HTT AJ AC50

SMILES	pIC50 (SMN2 CJ mRNA)	pIC50 (HTT CJ mRNA)	AC50 (HTT mRNA; [1]) [nM]	AC50 (HTT mRNA; [2]) [nM]	pIC50 (Target C CJ mRNA)
Cc1nc2c(F)cc(-c3ccc4c(=O)n(C5CCNCC5)ncc4c3)cc2s1 [Compound 253]	6.00 to 7.00	5.00 to 6.00	1000 to 10000	1000 to 10000	5.00 to 6.00
CN(c1ccc2c(=O)n(-c3ccc4nn(C)cc4c3)cnc2c1)C1CCNCC1 [Compound 180, 7-(methyl(piperidin-4-yl)amino)-3-(2-methyl-2H-indazol-5-yl)quinazolin-4(3H)-one, hydrochloride]	< 5.00	< 5.00	> 10000	> 10000	5.00 to 6.00
Cc1cn2nc(-c3ccc4c(=O)n(C5CCNC6(CC6)C5)ncc4c3)cc(C)c2n1 (stereo not drawn) [Compound 274]	> 7.00	> 7.00	< 100	< 100	> 7.00
Cc1cn2cc(-n3cnc4cc(N5CCNCC5)ccc4c3=O)cc(F)c2n1 [Compound 228, 3-(8-fluoro-2-methylimidazo[1,2-a]pyridin-6-yl)-7-(piperazin-1-yl)quinazolin-4(3H)-one]	6.00 to 7.00	6.00 to 7.00	100 to 1000	100 to 1000	6.00 to 7.00
Cc1cn2nc(-c3ccc4c(=O)n(C5CCN(C)CC5)cnc4c3)cc2c(C)n1 [Compound 303]	6.00 to 7.00	5.00 to 6.00	1000 to 10000	1000 to 10000	5.00 to 6.00
Cc1cn2nc(-c3ccc4c(=O)n(C5CCN(C)CC5)cnc4c3F)cc(C)c2n1 [Compound 290, 7-(2,8-dimethylimidazo[1,2-b]pyridazin-6-yl)-8-fluoro-3-(1-methylpiperidin-4-yl)quinazolin-4(3H)-one]	6.00 to 7.00	6.00 to 7.00	100 to 1000	100 to 1000	6.00 to 7.00
Cc1cn2nc(-c3ccc4c(=O)n(C5CCN(C)CC5)cnc4c3)cc(C)c2n1 [Compound 176, 7-(2,8-dimethylimidazo[1,2-b]pyridazin-6-yl)-3-(1-methylpiperidin-4-yl)quinazolin-4(3H)-one]	6.00 to 7.00	5.00 to 6.00	1000 to 10000	1000 to 10000	5.00 to 6.00
Cc1cn2nc(-c3ccc4c(c3)CCN([C@@H]3CCN[C@H](C)C3)C4=O)cc(C)c2n1 [Compound 281]	6.00 to 7.00	5.00 to 6.00	1000 to 10000	1000 to 10000	5.00 to 6.00
Cc1cn2nc(-c3ccc4c(c3)CCN(C3CCNCC3)C4=O)cc2c(C)n1 [Compound 223]	6.00 to 7.00	5.00 to 6.00	1000 to 10000	1000 to 10000	< 5.00
O=c1c2ccc(-c3cn[nH]c3)cc2cnn1C1CCNCC1 [Compound 261]	5.00 to 6.00	< 5.00	> 10000	> 10000	< 5.00
Cc1cn2nc(-c3ccc4c(=O)n(C5CCNC(C)(C)C5)ncc4c3)cc(C)c2n1 (stereo not drawn) [Compound 279]	> 7.00	6.00 to 7.00	100 to 1000	100 to 1000	6.00 to 7.00
Cc1cn2nc(-n3cnc4cc(N5CCNCC5)ccc4c3=O)cc(C)c2n1 [Compound 241, 3-(2,8-dimethylimidazo[1,2-b]pyridazin-6-yl)-7-(piperazin-1-yl)quinazolin-4(3H)-one]	5.00 to 6.00	5.00 to 6.00	1000 to 10000	1000 to 10000	5.00 to 6.00
O=C1c2ccc(-c3cn[nH]c3)cc2CCN1C1CCNCC1 [Compound 220]	< 5.00	< 5.00	> 10000	> 10000	< 5.00
Cc1cn2cc(-c3ccc4c(c3)CCN(C3CCNCC3)C4=O)cc(F)c2n1 [Compound 247, 6-[8-fluoro-2-methylimidazo[1,2-a]pyridin-6-yl]-2-(piperidin-4-yl)-3,4-dihydroisoquinolin-1-one]	> 7.00	5.00 to 6.00	1000 to 10000	1000 to 10000	5.00 to 6.00
Cc1cn2cc(-c3ccc4c(c3)CCN(C3CCNCC3)C4=O)ncc2n1 [Compound 224]	6.00 to 7.00	< 5.00	> 10000	> 10000	< 5.00
Cc1cn2nc(-c3cc(F)c4c(=O)n(C5CCNCC5)cnc4c3)cc(C)c2n1 [Compound 243, 7-(2,8-dimethylimidazo[1,2-b]pyridazin-6-yl)-5-fluoro-3-(piperidin-4-yl)quinazolin-4(3H)-one]	> 7.00	> 7.00	< 100	< 100	> 7.00
Cc1cc(-c2ccc3c(=O)n(C4CC(C)(C)NC(C)(C)C4)cnc3n2)cc2cn(C)nc12 [Compound 179]	5.00 to 6.00	< 5.00	> 10000	> 10000	< 5.00
Cn1cc2cc(-c3ccc4c(c3)CCN(C3CCNCC3)C4=O)cc(F)c2n1 [Compound 225]	< 5.00	< 5.00	> 10000	> 10000	< 5.00
Cc1cn2cc(-c3ccc4c(=O)n(C5CCNCC5)ncc4c3)ncc2n1 [Compound 255]	6.00 to 7.00	5.00 to 6.00	1000 to 10000	1000 to 10000	< 5.00
Cc1cn2nc(-c3ccc4c(c3)CCN(C3CCN(C)C3)C4=O)cc(C)c2n1 (stereo not drawn) [Compound 282, 6-{2,8-dimethylimidazo[1,2-b]pyridazin-6-yl}-2-(1-methylpyrrolidin-3-yl)-3,4-dihydroisoquinolin-1-one]	5.00 to 6.00	< 5.00	> 10000	> 10000	< 5.00
Cc1cn2cc(-c3ccc4c(=O)n(C5CCNCC5)ncc4c3)cc(C(F)(F)F)c2n1 [Compound 262]	> 7.00	5.00 to 6.00	1000 to 10000	1000 to 10000	5.00 to 6.00
Cc1cc(-c2cc(F)c3c(=O)n(C4CCNCC4)cnc3c2)cc2cn(C)nc12 [Compound 232]	> 7.00	> 7.00	< 100	< 100	6.00 to 7.00
CN1C2C=C(c3ccc4c(=O)n(-c5ccc6nn(C)cc6c5)cnc4c3)CC1CC2 (stereo not drawn) [Compound 161, 3-(2-methyl-2H-indazol-5-yl)-7-(8-methyl-8-azabicyclo[3.2.1]oct-2-en-3-yl)quinazolin-4(3H)-one]	< 5.00	< 5.00	> 10000	> 10000	< 5.00
Cc1cn2cc(-c3ccc4c(=O)n(C5CCNC(C)(C)C5)cnc4c3)cc(F)c2n1 (stereo not drawn) [Compound 237, 3-(2,2-dimethylpiperidin-4-yl)-7-(8-fluoro-2-methylimidazo[1,2-a]pyridin-6-yl)quinazolin-4(3H)-one]	> 7.00	6.00 to 7.00	100 to 1000	100 to 1000	5.00 to 6.00
Cc1cn2nc(-c3ccc4c(c3)CCN(C3CCN(C)CC3)C4=O)cc(C)c2n1 [Compound 268]	> 7.00	5.00 to 6.00	1000 to 10000	1000 to 10000	< 5.00
Cc1cn2nc(-c3ccc4c(=O)n(C5CCN(C)CC5)ncc4c3)cc(C)c2n1 [Compound 265]	> 7.00	> 7.00	< 100	< 100	6.00 to 7.00
Cc1cn2cc(-c3ccc4c(=O)n(C5CCN(C)CC5)cnc4c3)nc2c(C)n1 [Compound 302]	6.00 to 7.00	5.00 to 6.00	1000 to 10000	1000 to 10000	5.00 to 6.00
